{"source": "paper PMC6379368", "about": "“Extracellular and intracellular small-molecule galectin-3 inhibitors” (Scientific Reports, 2019)", "key": {"MCF-7 cells": {"test_system": "MCF-7 cells", "experiment": "MTT cell viability assay, MCF-7", "assay_type": "cell-based", "conditions": "MCF-7, 72 hours, 0.04–40 µM for 1 and 2, 0.04–20 µM for 3", "method": "(§1) The MTT (3-[4,5-dimethylthiazol-2-yl]−2,5-diphenyltetrazolium bromide) assays were performed as previously described. […] The cells were incubated for 24 hours before addition of galectin-3 inhibitors. The inhibitors were diluted in PBS from their respective stock solution in DMSO (see Galectin-3 inhibitors) and used at final concentrations ranging from 0.04 to 40 μM. DMSO was adjusted to make the final DMSO concentration 0.2% for all inhibitor concentrations, including the control sample (no inhibitor). After 72 hours of treatment, 20 μl of 5 mg/ml MTT solution (in PBS) was added to each well and incubation continued for 1 hour at 37 °C. Thereafter, the MTT containing medium was removed and 100 μl of DMSO was added per well and the plates swirled gently for 10 minutes to dissolve the cells and the purple formazan product precipitate. Absorbance was monitored at 540 nm using a Labsystems iEMS Reader MF (Labsystems Oy, Helsinki, Finland) and the software DeltaSoft II v.4.14 (Biometallics Inc., Princeton, NJ, USA)."}, "AsPC-1 cells": {"test_system": "AsPC-1 cells", "experiment": "MTT assay, AsPC-1 pancreatic cancer cells", "assay_type": "cell-based", "conditions": "AsPC-1, 72 hours", "method": "The MTT (3-[4,5-dimethylthiazol-2-yl]−2,5-diphenyltetrazolium bromide) assays were performed as previously described. In brief, cells were seeded in 96-well plates (6000 cells/well for MCF-7 and HCC1937 and 5000 cells for JIMT-1 in 180 μl fully-supplemented medium as described under Cell culture). The cells were incubated for 24 hours before addition of galectin-3 inhibitors. The inhibitors were diluted in PBS from their respective stock solution in DMSO (see Galectin-3 inhibitors) and used at final concentrations ranging from 0.04 to 40 μM. DMSO was adjusted to make the final DMSO concentration 0.2% for all inhibitor concentrations, including the control sample (no inhibitor). After 72 hours of treatment, 20 μl of 5 mg/ml MTT solution (in PBS) was added to each well and incubation continued for 1 hour at 37 °C. […] Absorbance was monitored at 540 nm using a Labsystems iEMS Reader MF (Labsystems Oy, Helsinki, Finland) and the software DeltaSoft II v.4.14 (Biometallics Inc., Princeton, NJ, USA). […]\nFluorescence anisotropy assay\nThe affinity between inhibitor 1 and the carbohydrate recognition domain (CRD) of galectin-8C and between inhibitor 3 and the CRD of galectin-2, -4N, -4C, 8C, and -9C was determined using the fluorescence anisotropy assay described in the main article. […]"}, "HCC1937 cells": {"test_system": "HCC1937 cells", "experiment": "MTT cell viability assay, HCC1937", "assay_type": "cell-based", "conditions": "HCC1937, 72 hours, 0.04–40 µM for 1 and 2, 0.04–20 µM for 3", "method": "as §1"}, "galectin-1": {"test_system": "galectin-1", "parameters": "method as in Delaine et al., Salameh et al., Peterson et al.", "conditions": "lower compared to galectin-3; ref Delaine et al., Salameh et al., Peterson et al.; cited from earlier work"}}}
{"smiles": "OC[C@H]1O[C@@H](S[C@@H]2O[C@H](CO)[C@H](O)[C@H](n3cc(-c4cccc(F)c4)nn3)[C@H]2O)[C@H](O)[C@@H](n2cc(-c3cccc(F)c3)nn2)[C@H]1O", "note": "[compound 1]", "values": [{"measurement": "cell viability (MTT)", "setting": "MCF-7 cells", "value": "no apparent change in cell viability"}, {"measurement": "toxicity (MTT)", "setting": "AsPC-1 cells", "value": "low toxicity"}, {"measurement": "cell viability (MTT)", "setting": "HCC1937 cells", "value": "no apparent change in cell viability"}, {"measurement": "affinity for galectin-1", "setting": "galectin-1", "value": "high affinity"}]}
